The values that follow come from PubChem BioAssay (NCI).

SMILES strings stand for the structures.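 Following 48 hours of exposure in 96-well plates, responses at five concentrations were used to interpolate endpoints linearly. Here, GI50 denotes the concentration required for 50% inhibition of growth. TGI denotes the concentration required for complete inhibition of growth.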

For the first assay, the system named is M14 melanoma. Kind of assay: NCI anticancer screen, dose series, 48 h.
On to `N#CC(C(=O)C(=O)Nc1ccc(Cl)cc1)c1ccccc1` (stereo not given), for which the TGI was more than 100 µM.
Still for that read-out and setting: with `CCOc1ccncc1[N+](=O)[O-]` the figure was more than 100 µM.
For the molecule `COc1c[c]([Hg][O]C(C)=O)c(OC)c(NC(=O)CC(C)=O)[c]1[Hg][O]C(C)=O`, the GI50 was 2.11 µM and the TGI stood at 4.56 µM.
`Cc1nc2sc3c(c2c(=O)[nH]1)CCCC3` registered a TGI of more than 100 µM.
Turning to `O=C(/C=C/c1ccccc1Cl)NC1C=Nc2ccc([N+](=O)[O-])cc2NC1` (stereo not given), the TGI is more than 100 µM.
Take `Cc1ccc(C)c(N=C2NC(=O)C(CC(=O)Nc3ccc(Cl)cc3Cl)S2)c1` (stereo not given): the TGI was more than 100 µM.
Take `Cc1cc(NS(=O)(=O)c2ccc(Nc3c4ccccc4nc4c(C(=O)N5CCN(CCO)CC5)ccc(Cl)c34)cc2)no1`: the TGI is more than 100 µM.
On to `COc1ccc(CCNC(=O)c2ccc(NC3=C(Cl)C(=O)N(Cc4ccccc4)C3=O)cc2)cc1OC`, for which the GI50 is 5.47 µM and the TGI is more than 100 µM.
In turn, `Cc1nc([N+](=O)[O-])cn1CC(=N)N` showed a TGI of more than 100 µM.
On to `COC(=O)/C=C/c1c(CC=C(C)C)ncn1C`, for which the TGI is more than 100 µM.
With `CC(C)C(=O)Nc1nc2c(ncn2C2OC(CO)C(O)C2O)c(=O)[nH]1` (stereo not given), the TGI was more than 100 µM.
For the molecule `O=CN1CCN(CC(O)CN2CCCCC2)CC1` (stereo not given), the TGI was more than 100 µM.
Still for that read-out and setting: then `O=S(=O)(c1ccccc1)C1CN2OC1(S(=O)(=O)c1ccccc1)CC2c1ccc(Br)cc1` (stereo not given), with more than 100 µM.
`NCCSc1nc(-c2ccccc2)c(-c2ccccc2)o1` came in with a TGI of more than 100 µM.
The same measure, in the same setting: with `CC(=O)O[C@H]1CCC2[C@@H]3CCC4Nc5[nH]ncc5C[C@]4(C)C3CC[C@@]21C` (stereo not given in full) the figure was more than 100 µM; with `Cc1cc(C)nc(NS(=O)(=O)c2ccc(NC(=O)c3cccc4c(Nc5ccc(S(N)(=O)=O)cc5)c5ccccc5nc34)cc2)n1`, more than 100 µM.
The same measure, in the same setting: with `Cc1cc(S(=O)(=O)O)c(NC(=O)C(=O)Cc2cc(=O)oc3cc(O)ccc23)cc1Cl` the figure was more than 100 µM.

For the next assay, the system named is HCC-2998 colon. Kind of assay: NCI anticancer screen, dose series, 48 h.
In turn, `COc1ccc(-c2coc3c4c(ccc3c2=O)OCO4)cc1OC` had a TGI of more than 100 µM.
On to `O=C1c2ccccc2-c2c1c1ccccc1c(=O)n2CCCCl`, for which the GI50 was 10.4 µM and the TGI is 96.6 µM.
On the same counts, the results for `COc1cc2c(c(OC)c1OC)-c1ncc3cc4c(cc3c1C2)OCO4` are 17.4 µM and 48.1 µM.
In turn, `COC(=O)[C@H]1C=C[C@@H](C)n2c(=O)c3cc4ccccc4cc3c(=O)n21` had a TGI of more than 100 µM.
Molecule `COc1cc(C=O)c(-c2cc(OC)c(OC)cc2C=O)cc1OC` had a TGI of more than 100 µM.
Same read-out and setting: then `N#CC(C(=O)C(=O)Nc1ccc(Cl)cc1)c1ccccc1` (stereo not given), with more than 100 µM.
Take `COc1c[c]([Hg][O]C(C)=O)c(OC)c(NC(=O)CC(C)=O)[c]1[Hg][O]C(C)=O`: the GI50 is 15.8 µM and the TGI was 30.1 µM.
`O=C(/C=C/c1ccccc1Cl)NC1C=Nc2ccc([N+](=O)[O-])cc2NC1` (stereo not given) registered a TGI of more than 100 µM.
The same measure, in the same setting: then `Cc1ccc(C)c(N=C2NC(=O)C(CC(=O)Nc3ccc(Cl)cc3Cl)S2)c1` (stereo not given), with more than 100 µM; and `Cc1cc(NS(=O)(=O)c2ccc(Nc3c4ccccc4nc4c(C(=O)N5CCN(CCO)CC5)ccc(Cl)c34)cc2)no1`, with more than 100 µM; and `Cc1nc([N+](=O)[O-])cn1CC(=N)N`, with more than 100 µM.
Same read-out and setting: with `COC(=O)/C=C/c1c(CC=C(C)C)ncn1C` the figure was more than 100 µM.
Same read-out and setting: then `CC(C)C(=O)Nc1nc2c(ncn2C2OC(CO)C(O)C2O)c(=O)[nH]1` (stereo not given), with more than 100 µM.
`O=S(=O)(c1ccccc1)C1CN2OC1(S(=O)(=O)c1ccccc1)CC2c1ccc(Br)cc1` (stereo not given) had a TGI of more than 100 µM.
Still for that read-out and setting: then `CC(=O)O[C@H]1CCC2[C@@H]3CCC4Nc5[nH]ncc5C[C@]4(C)C3CC[C@@]21C` (stereo not given in full), with 79.7 µM; and `Cc1cc(C)nc(NS(=O)(=O)c2ccc(NC(=O)c3cccc4c(Nc5ccc(S(N)(=O)=O)cc5)c5ccccc5nc34)cc2)n1`, with 36.1 µM.
`Cc1cc(S(=O)(=O)O)c(NC(=O)C(=O)Cc2cc(=O)oc3cc(O)ccc23)cc1Cl` yielded a TGI of more than 100 µM.

The next assay concerns SF-539 CNS. Nature of the assay: NCI anticancer screen, dose series, 48 h.
Consider `COc1ccc(-c2coc3c4c(ccc3c2=O)OCO4)cc1OC`, for which the TGI was more than 100 µM.
As for `O=C1c2ccccc2-c2c1c1ccccc1c(=O)n2CCCCl`, the GI50 was 4.11 µM and the TGI turned out to be 21.5 µM.
On the same counts, the results for `CC1=C(C(=O)Nc2ccc(Cl)c(Cl)c2)C(c2cccc(Oc3ccccc3)c2)NC(=O)N1` (stereo not given) are 6.78 µM and 17 µM.
Take `COC(=O)[C@H]1C=C[C@@H](C)n2c(=O)c3cc4ccccc4cc3c(=O)n21`: the TGI is more than 100 µM.
The molecule `O=C(O)c1ccc(OCc2ccccc2)c(Cl)c1` had a TGI of more than 100 µM.
As for `COc1cc(C=O)c(-c2cc(OC)c(OC)cc2C=O)cc1OC`, the TGI was more than 100 µM.
On the same count and under the same terms, with `N#CC(C(=O)C(=O)Nc1ccc(Cl)cc1)c1ccccc1` (stereo not given) the figure was more than 100 µM.
Consider `CCOc1ccncc1[N+](=O)[O-]`, for which the TGI was more than 100 µM.
For the molecule `COc1c[c]([Hg][O]C(C)=O)c(OC)c(NC(=O)CC(C)=O)[c]1[Hg][O]C(C)=O`, the GI50 was 12.6 µM and the TGI was determined as 28.1 µM.
`Cc1nc2sc3c(c2c(=O)[nH]1)CCCC3` had a TGI of more than 100 µM.
In the case of `O=C(/C=C/c1ccccc1Cl)NC1C=Nc2ccc([N+](=O)[O-])cc2NC1` (stereo not given), the TGI was more than 100 µM.
On the same count and under the same terms, then `Cc1ccc(C)c(N=C2NC(=O)C(CC(=O)Nc3ccc(Cl)cc3Cl)S2)c1` (stereo not given), with more than 100 µM.
In the case of `Cc1cc(NS(=O)(=O)c2ccc(Nc3c4ccccc4nc4c(C(=O)N5CCN(CCO)CC5)ccc(Cl)c34)cc2)no1`, the TGI was more than 100 µM.
Take `COc1ccc(CCNC(=O)c2ccc(NC3=C(Cl)C(=O)N(Cc4ccccc4)C3=O)cc2)cc1OC`: the GI50 was 23.9 µM and the TGI was determined as 70.5 µM.
The molecule `Cc1nc([N+](=O)[O-])cn1CC(=N)N` had a TGI of more than 100 µM.
On the same count and under the same terms, with `COC(=O)/C=C/c1c(CC=C(C)C)ncn1C` the figure was 62.2 µM; with `CC(C)C(=O)Nc1nc2c(ncn2C2OC(CO)C(O)C2O)c(=O)[nH]1` (stereo not given), more than 100 µM.
The same measure, in the same setting: with `O=S(=O)(c1ccccc1)C1CN2OC1(S(=O)(=O)c1ccccc1)CC2c1ccc(Br)cc1` (stereo not given) the figure was 89.9 µM; with `NCCSc1nc(-c2ccccc2)c(-c2ccccc2)o1`, more than 100 µM; with `CC(=O)O[C@H]1CCC2[C@@H]3CCC4Nc5[nH]ncc5C[C@]4(C)C3CC[C@@]21C` (stereo not given in full), more than 100 µM.
Regarding `Cc1cc(C)nc(NS(=O)(=O)c2ccc(NC(=O)c3cccc4c(Nc5ccc(S(N)(=O)=O)cc5)c5ccccc5nc34)cc2)n1`, the TGI was 20.5 µM.
The same measure, in the same setting: then `Cc1cc(S(=O)(=O)O)c(NC(=O)C(=O)Cc2cc(=O)oc3cc(O)ccc23)cc1Cl`, with more than 100 µM.
